According to PubChem BioAssay (NCI):
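Results reflect a 48-hour exposure of cells in 96-well plates to compound at five concentrations. The concentration for full growth arrest is given as TGI.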

Key:
Assay in all cases: NCI tumour cell line growth inhibition, 48 h
BT-549 breast = test system: BT-549 breast
CAKI-1 renal = test system: CAKI-1 renal
COLO 205 colon = test system: COLO 205 colon
DU-145 prostate = test system: DU-145 prostate
HCC-2998 colon = test system: HCC-2998 colon
HS 578T breast = test system: HS 578T breast
HT29 colon = test system: HT29 colon
LOX IMVI melanoma = test system: LOX IMVI melanoma
M14 melanoma = test system: M14 melanoma
MCF7 breast = test system: MCF7 breast
NCI-H460 lung = test system: NCI-H460 lung
PC-3 prostate = test system: PC-3 prostate
RPMI-8226 leukemia = test system: RPMI-8226 leukemia
SK-MEL-2 melanoma = test system: SK-MEL-2 melanoma
SK-MEL-28 melanoma = test system: SK-MEL-28 melanoma
SK-MEL-5 melanoma = test system: SK-MEL-5 melanoma
SN12C renal = test system: SN12C renal
TK-10 renal = test system: TK-10 renal
UACC-257 melanoma = test system: UACC-257 melanoma
KM20L2 colon = test system: KM20L2 colon

Structure (SMILES)	TGI (BT-549 breast)	TGI (CAKI-1 renal)	TGI (COLO 205 colon)	TGI (DU-145 prostate)	TGI (HCC-2998 colon)	TGI (HS 578T breast)	TGI (HT29 colon)	TGI (LOX IMVI melanoma)	TGI (M14 melanoma)	TGI (MCF7 breast)	TGI (NCI-H460 lung)	TGI (PC-3 prostate)	TGI (RPMI-8226 leukemia)	TGI (SK-MEL-2 melanoma)	TGI (SK-MEL-28 melanoma)	TGI (SK-MEL-5 melanoma)	TGI (SN12C renal)	TGI (TK-10 renal)	TGI (UACC-257 melanoma)	TGI (KM20L2 colon)
CN1/C(=C\N=O)C(C)(C)N(O)C1(C)C	> 100 µM	> 100 µM	> 100 µM	> 100 µM	> 100 µM	> 100 µM	> 100 µM	> 100 µM	> 100 µM	> 100 µM	> 100 µM	> 100 µM	> 100 µM	> 100 µM	> 100 µM	> 100 µM	> 100 µM	> 100 µM	> 100 µM	
CSc1c(C(N)=S)c(N)nn1-c1ccccc1	> 100 µM	> 100 µM	> 100 µM	> 100 µM	> 100 µM	> 100 µM	> 100 µM	> 100 µM	> 100 µM	> 100 µM	> 100 µM	> 100 µM	> 100 µM	> 100 µM	> 100 µM	> 100 µM	> 100 µM	> 100 µM	> 100 µM	
COc1ccc2[nH]c3c(c2c1)CCc1c(OC)cccc1-3	> 100 µM	> 100 µM	> 100 µM	> 100 µM	> 100 µM	> 100 µM	> 100 µM	> 100 µM	> 100 µM	> 100 µM	> 100 µM	> 100 µM	> 100 µM	> 100 µM	> 100 µM	> 100 µM	> 100 µM	> 100 µM	> 100 µM	
COC(=O)C(/C(=N/N)C(=O)Nc1cc(Cl)ccc1Cl)c1nc2ccc([N+](=O)[O-])cc2[nH]c1=O (centres undefined)			> 100 µM		> 100 µM		> 100 µM	> 100 µM	> 100 µM		> 100 µM		> 100 µM	> 100 µM	> 100 µM	> 100 µM	> 100 µM	> 100 µM	> 100 µM	> 100 µM
Fc1ccccc1-c1cc(=S)c2cc3c(cc2[nH]1)OCO3	> 100 µM	> 100 µM	> 89 µM	> 100 µM	> 45.5 µM	> 100 µM	40.2 µM	> 100 µM	> 100 µM	> 100 µM	> 100 µM	> 80.2 µM	> 70 µM	> 76.7 µM	> 100 µM	> 30.7 µM	> 100 µM	> 100 µM	> 100 µM	
O=C(NC1CCCCC1)NC12CC3CC(CC(F)(C3)C1)C2			> 100 µM		> 100 µM		> 100 µM	> 100 µM	> 100 µM		> 100 µM		> 100 µM	> 100 µM	> 100 µM	> 100 µM		> 100 µM	> 100 µM	> 100 µM
CC1=C(C(=O)O)N2C(=O)[C@@H](NC(=O)C(c3ccccc3)N3CSC(=S)N(C(C)C)C3)C2SC1 (some centres undefined)		> 100 µM	> 100 µM				> 100 µM	> 100 µM	> 100 µM		> 100 µM		> 100 µM	> 100 µM	> 100 µM	> 100 µM	> 100 µM	> 100 µM	> 100 µM	> 100 µM
COc1ccc2nc(N/N=C/c3ccc(C)s3)cc(C)c2c1	29.6 µM	40.5 µM	38.5 µM	34.7 µM	33.5 µM	55.2 µM	25.7 µM	33.7 µM	37.7 µM	37.5 µM		35.9 µM	37.3 µM	41.6 µM	> 100 µM	30.5 µM	38.3 µM	> 100 µM	39.4 µM	
Cc1ccc([N+](=O)[O-])cc1NC(=O)C(=O)Cc1nc2ccc(C(=O)c3ccccc3)cc2[nH]c1=O		> 100 µM	> 100 µM		> 100 µM		> 100 µM	> 100 µM	> 100 µM		> 100 µM				> 100 µM	> 100 µM	> 100 µM	> 100 µM	> 100 µM	> 100 µM
Cn1c2ccccc2c2c3c(c4c5ccccc5n(C)c4c21)C(=O)N(Cc1ccccc1)C3=O	> 100 µM	> 100 µM	> 100 µM	> 100 µM	> 100 µM	> 100 µM	> 100 µM	> 100 µM	> 100 µM	> 100 µM	> 100 µM	> 100 µM	> 100 µM	> 100 µM	> 100 µM	> 100 µM	> 100 µM	> 100 µM	> 100 µM	
CCCCN(C)CC(C(C)=O)C(c1ccccc1)c1c(O)c2ccccc2oc1=O (centres undefined)		> 100 µM	> 100 µM				> 100 µM	> 100 µM	> 100 µM		> 100 µM		> 100 µM	> 100 µM	> 100 µM	> 100 µM	> 100 µM	> 100 µM	> 100 µM	> 100 µM
Cc1nc(-c2cccnc2)sc1C(=O)CC(=O)C(=O)Nc1cccc(NC(=O)C(=O)CC(=O)c2sc(-c3cccnc3)nc2C)n1	> 100 µM	> 100 µM	> 100 µM	> 100 µM	> 100 µM	> 100 µM	> 100 µM	> 100 µM	> 100 µM	> 100 µM	> 100 µM	> 100 µM	> 100 µM	> 100 µM	> 100 µM	> 100 µM	> 100 µM		> 100 µM	
Nc1ccc2nc3n(c2c1)C(c1c(F)cccc1F)SC3 (centres undefined)	> 100 µM	> 100 µM	> 100 µM	> 100 µM	> 100 µM	> 100 µM	> 100 µM	> 100 µM	> 100 µM	> 100 µM	> 100 µM	> 100 µM	> 100 µM	> 100 µM	> 100 µM	> 100 µM	> 100 µM	> 100 µM	> 100 µM	
Cc1c(C)c(S(=O)(=O)N(CCCN)OCCCN)c(C)c2c1OC(C)(C)CC2	31.4 µM	30.1 µM	32.1 µM	29.5 µM	21.2 µM	29.6 µM	28.4 µM	26.1 µM	27.7 µM	29.1 µM	30.3 µM	24.5 µM	35.7 µM	32.1 µM	28.5 µM	29 µM	28.4 µM	28 µM	27.3 µM	
CC(C)(Oc1ccc2c(=O)cc(-c3ccc(Cl)cc3)oc2c1)C(=O)Nc1c(Cl)cccc1Cl		> 100 µM					> 100 µM	> 100 µM	> 100 µM		> 100 µM		> 100 µM	> 100 µM	> 100 µM	> 100 µM		> 100 µM	> 100 µM	> 100 µM
CCCCCCCCCCCCCC(=O)OCC(CCS(=O)(=O)O[C@H]1CC[C@@]2(C)C(=CC[C@@H]3C2CC[C@]2(C)C(=O)CCC32)C1)OC(=O)CCCCCCCCCCCCC (some centres undefined)	> 100 µM	> 100 µM	> 100 µM	> 100 µM	> 100 µM	> 100 µM	> 100 µM	> 100 µM	> 100 µM	> 100 µM	> 100 µM	> 100 µM	> 100 µM	> 100 µM	> 100 µM	> 100 µM	> 100 µM	> 100 µM	> 100 µM	
C=C(C)[C@@]12C[C@H](OC(=O)[C@H](O)[C@@H](NC(=O)c3ccccc3)c3ccccc3)C(C)=C1[C@@H](OC(C)=O)C(=O)[C@@]1(C)C([C@@H]2OC(=O)c2cc(F)cc(F)c2)C2(OC(C)=O)CO[C@@H]2C[C@@H]1O (some centres undefined)	2.99 µM	> 10 µM	0.392 µM	> 5.16 µM	2.16 µM	0.215 µM	1.4 µM	2.21 µM	> 10 µM	> 10 µM	9.22 µM	> 10 µM	0.547 µM	2.28 µM	> 10 µM	> 10 µM	> 4.51 µM	9.66 µM	2.79 µM	
NC1=Nc2ccccc2Sc2nccn21	> 100 µM	64.9 µM	35.4 µM	> 100 µM	43 µM	79.1 µM	65.1 µM	32.3 µM	32.8 µM	> 100 µM	> 100 µM	65 µM	44.5 µM	> 100 µM	> 100 µM	33.6 µM	> 100 µM	72.6 µM	75 µM	
Cc1ccc(N2C=Nn3c(nc4sc5c(c4c3=O)CCCC5)C2)cc1	> 100 µM	> 100 µM	> 100 µM	> 100 µM	> 100 µM	92 µM	> 100 µM	> 100 µM	> 100 µM	> 100 µM	> 100 µM	> 100 µM	> 100 µM	> 100 µM	> 100 µM	> 100 µM	> 100 µM	> 100 µM	> 100 µM	
Cc1ccc(F)c2[nH]c(-c3ccccc3)cc(=O)c12	> 100 µM	> 100 µM	24.9 µM	> 100 µM	> 100 µM	> 100 µM	> 100 µM	> 100 µM	> 100 µM	> 20.4 µM	> 100 µM	> 100 µM	> 100 µM	> 100 µM	> 40.1 µM	14.9 µM	> 100 µM	> 100 µM	> 100 µM	
